SMILES strings stand for the structures. Where a SMILES comes first, the peptide text is derived from it.

This assay addresses gastrin/CCK-B receptor (Rattus norvegicus). Kind of assay: Inhibitory activity against binding of [125I](Nle11)-HG-13 to gastrin receptor in vitro.
Consider `CC[C@H](C)[C@H](NC(=O)[C@H](Cc1c[nH]c2ccccc12)NC(=O)OC(C)(C)C)C(=O)N[C@@H](CC(=O)O)C(N)=O` (HELM PEPTIDE1{[CC(C)(C)OC(=O)[*:2]].W.I.D.[am]}$$$$V2.0), for which the IC50 was determined as 50 µM. For the molecule `CC(C)(C)OC(=O)N[C@@H](Cc1c[nH]c2ccccc12)C(=O)N1CCC[C@H]1C(=O)N[C@@H](CC(=O)O)C(N)=O` [3-({1-[2-tert-Butoxycarbonylamino-3-(1H-indol-3-yl)-propionyl]-pyrrolidine-2-carbonyl}-amino)-succinamic acid] (HELM PEPTIDE1{[CC(C)(C)OC(=O)[*:2]].W.P.D.[am]}$$$$V2.0), the IC50 was 100 µM.

Regarding `CSCC[C@H](NC(=O)[C@H](Cc1c[nH]c2ccccc12)NC(=O)CNC(=O)OC(C)(C)C)C(=O)N[C@@H](CC(=O)O)C(N)=O` [3-{2-[2-(2-tert-Butoxycarbonylamino-acetylamino)-3-(1H-indol-3-yl)-propionylamino]-4-methylsulfanyl-butyrylamino}-succinamic acid] (HELM PEPTIDE1{[CC(C)(C)OC(=O)[*:2]].G.W.M.D.[am]}$$$$V2.0), the IC50 came to 25 µM. As to `CC(C)C[C@H](NC(=O)[C@H](Cc1c[nH]c2ccccc12)NC(=O)OCc1ccccc1)C(=O)N[C@@H](CC(=O)O)C(N)=O` [3-{2-[2-Benzyloxycarbonylamino-3-(1H-indol-3-yl)-propionylamino]-4-methyl-pentanoylamino}-succinamic acid] (HELM PEPTIDE1{[O=C(OCc1ccccc1)[*:2]].W.L.D.[am]}$$$$V2.0), the IC50 amounted to 40 µM. Molecule `CC(C)(C)OC(=O)N[C@@H](Cc1c[nH]c2ccccc12)C(=O)N[C@@H](Cc1ccccc1)C(=O)N[C@@H](CC(=O)O)C(N)=O` [3-{2-[2-tert-Butoxycarbonylamino-3-(1H-indol-3-yl)-propionylamino]-3-phenyl-propionylamino}-succinamic acid] (HELM PEPTIDE1{[CC(C)(C)OC(=O)[*:2]].W.F.D.[am]}$$$$V2.0) registered an IC50 of 30 µM.

For `CC(C)C[C@H](NC(=O)[C@H](Cc1c[nH]c2ccccc12)NC(=O)OC(C)(C)C)C(=O)N[C@@H](CC(=O)O)C(=O)N(C)C` [3-{2-[2-tert-Butoxycarbonylamino-3-(1H-indol-3-yl)-propionylamino]-4-methyl-pentanoylamino}-N,N-dimethyl-succinamic acid] (HELM PEPTIDE1{[CC(C)(C)OC(=O)[*:2]].W.L.D.[CN(C)[*:1]]}$$$$V2.0), the 50% inhibitory concentration (IC50) worked out at 100 µM.

Turning to `CC(C)CC(NC(=O)[C@H](Cc1c[nH]c2ccccc12)NC(=O)OC(C)(C)C)C(=O)N[C@@H](CC(=O)O)C(N)=O` (some centres not stated) [3-{2-[2-tert-Butoxycarbonylamino-3-(1H-indol-3-yl)-propionylamino]-4-methyl-pentanoylamino}-succinamic acid], the 50% inhibitory concentration (IC50) is 50 µM.

`CSCC[C@H](NC(=O)[C@H](Cc1c[nH]c2ccccc12)NC(=O)OC(C)(C)C)C(=O)N[C@@H](CC(=O)O)C(N)=O` [3-{2-[2-tert-Butoxycarbonylamino-3-(1H-indol-3-yl)-propionylamino]-4-methylsulfanyl-butyrylamino}-succinamic acid] (HELM PEPTIDE1{[CC(C)(C)OC(=O)[*:2]].W.M.D.[am]}$$$$V2.0) displayed an IC50 of 30 µM. Then `CCCC[C@H](NC(=O)[C@H](Cc1c[nH]c2ccccc12)NC(=O)OC(C)(C)C)C(=O)N[C@@H](CC(=O)O)C(N)=O` [3-{2-[2-tert-Butoxycarbonylamino-3-(1H-indol-3-yl)-propionylamino]-hexanoylamino}-succinamic acid] (HELM PEPTIDE1{[CC(C)(C)OC(=O)[*:2]].W.[Nle].D.[am]}$$$$V2.0), with 30 µM; and `CC(C)C[C@H](NC(=O)[C@H](Cc1c[nH]c2ccccc12)NC(=O)OC(C)(C)C)C(=O)N[C@@H](CCC(=O)O)C(N)=O` [4-{2-[2-tert-Butoxycarbonylamino-3-(1H-indol-3-yl)-propionylamino]-4-methyl-pentanoylamino}-4-carbamoyl-butyric acid] (HELM PEPTIDE1{[CC(C)(C)OC(=O)[*:2]].W.L.E.[am]}$$$$V2.0), with 20 µM. Then `O=C(N[C@@H](Cc1c[nH]c2ccccc12)C(=O)O)c1ccc(Cl)cc1` [(S)-2-(4-Chloro-benzoylamino)-3-(1H-indol-3-yl)-propionic acid], with 250 µM; and `CC(C)C[C@H](NC(=O)[C@H](Cc1c[nH]c2ccccc12)NC(=O)OC(C)(C)C)C(=O)N[C@@H](C)C(N)=O` [[1-[1-(1-Carbamoyl-ethylcarbamoyl)-3-methyl-butylcarbamoyl]-2-(1H-indol-3-yl)-ethyl]-carbamic acid tert-butyl ester] (HELM PEPTIDE1{[CC(C)(C)OC(=O)[*:2]].W.L.A.[am]}$$$$V2.0), with 150 µM.

By IC50 is commonly meant the point on the concentration scale where inhibition reaches its midpoint. Lower therefore signals higher potency.

(Values after BindingDB's records for doi:10.1021/jm00381a002 (1985).)
